Results reported in the Kinase Knowledgebase extract (Sharma et al. 2016).

Target: CDK2 (human) (UniProt P24941)
Experiment: Enzyme Assay

With `COC(=O)[C@H](Cc1ccc(O)cc1)NC(=O)c1cc(C(=O)O)c2cc(-c3cccc(C)c3)ccc2n1` the IC50 was at most 1000 nM.

Work on `O=C(N[C@@H](Cc1ccc(O)cc1)C(=O)NC1CC1)c1cc(C(=O)O)c2cc(C=Cc3ccc(Cl)cc3)ccc2n1` yielded an IC50 of at most 1000 nM.

In the case of `COC(=O)[C@H](Cc1ccc(O)cc1)NC(=O)c1cc(C(=O)O)c2cc(-c3cccc(C(C)C)c3)ccc2n1`, the IC50 is reported as at most 1000 nM.

`COC(=O)[C@H](Cc1ccc(O)cc1)NC(=O)c1cc(C(=O)O)c2cc(CCc3ccc(Cl)cc3)ccc2n1` was tested, and the IC50 was at most 1000 nM.

In the case of `COC[C@H](Cc1ccc(O)cc1)NC(=O)c1cc(C(=O)O)c2cc(C=Cc3ccc(Cl)cc3)ccc2n1`, the IC50 is reported as at most 1000 nM.

In the case of `COC(=O)[C@H](Cc1ccc(O)cc1)NC(=O)c1cc(C(=O)O)c2cc(CCc3ccc(C(F)(F)F)cc3)ccc2n1`, the IC50 is reported as at most 1000 nM.

`COC(=O)[C@H](Cc1ccc(O)cc1)NC(=O)c1cc(C(=O)O)c2cc(-c3ccccc3)ccc2n1` gave an IC50 of at most 1000 nM.

`COC(=O)[C@H](Cc1ccc(O)cc1)NC(=O)c1cc(C(=O)O)c2cc(C=Cc3ccc(Cl)cc3)ccc2n1` showed an IC50 of at most 1000 nM.

With `CON=C[C@H](Cc1ccc(O)cc1)NC(=O)c1cc(C(=O)O)c2cc(-c3cccc(C(F)(F)F)c3)ccc2n1` the IC50 was at most 1000 nM.

Compound `CCCCCC#Cc1ccc2nc(C(=O)N[C@H](COC)Cc3ccc(O)cc3)cc(C(=O)O)c2c1` has an IC50 of at most 1000 nM.

For `COC(=O)[C@H](Cc1ccc(O)cc1)NC(=O)c1cc(C(=O)O)c2cc(-c3cccc(-c4ccccc4)c3)ccc2n1`, the IC50 was at most 1000 nM.

`COC(=O)[C@H](Cc1ccc(O)cc1)NC(=O)c1cc(C(=O)O)c2cc(-c3ccc(Cl)cc3)ccc2n1` was tested, and the IC50 was at most 1000 nM.

Work on `CCCCCC=Cc1ccc2nc(C(=O)N[C@H](COC)Cc3ccc(O)cc3)cc(C(=O)O)c2c1` yielded an IC50 of at most 1000 nM.

Work on `COC(=O)[C@H](Cc1ccc(O)cc1)NC(=O)c1cc(C(=O)O)c2cc(-c3ccc(C(C)C)cc3)ccc2n1` yielded an IC50 of at most 1000 nM.

`COC[C@H](Cc1ccc(O)cc1)NC(=O)c2cc(C(=O)O)c3cc(ccc3n2)c4cccc(CN5=CC(=CC=C5)O)c4` was tested, and the IC50 was at most 1000 nM.

`COC(=O)[C@H](Cc1ccc(O)cc1)NC(=O)c1cc(C(=O)O)c2cc(-c3cccs3)ccc2n1` was tested, and the IC50 was at most 1000 nM.

`O=C(N[C@@H](Cc1ccc(O)cc1)c1ncc[nH]1)c1cc(C(=O)O)c2cc(-c3cccc(C(F)(F)F)c3)ccc2n1` gave an IC50 of at most 1000 nM.

`COC(=O)[C@H](Cc1ccc(O)cc1)NC(=O)c1cc(C(=O)O)c2cc(C=CC(C)(C)C)ccc2n1` gave an IC50 of at most 1000 nM.

Work on `COC(=O)[C@H](Cc1ccc(O)cc1)NC(=O)c1cc(C(=O)O)c2cc(-c3ccc(F)c(Cl)c3)ccc2n1` yielded an IC50 of at most 1000 nM.

Work on `CCCC(Cc1ccc(O)cc1)NC(=O)c1cc(C(=O)O)c2cc(-c3cccc(C(F)(F)F)c3)ccc2n1` (stereo not given) yielded an IC50 of at most 1000 nM.

With `CCCCCCCc1ccc2nc(C(=O)N[C@H](COC)Cc3ccc(O)cc3)cc(C(=O)O)c2c1` the IC50 was at most 1000 nM.

`COC(=O)[C@H](Cc1ccc(O)cc1)NC(=O)c1cc(C(=O)O)c2cc(-c3ccc(Cl)c(Cl)c3)ccc2n1` showed an IC50 of at most 1000 nM.

`COC[C@H](Cc1ccc(O)cc1)NC(=O)c1cc(S(=O)(=O)O)c2cc(-c3cccc(C(F)(F)F)c3)ccc2n1` gave an IC50 of at most 1000 nM.

For `COC(=O)[C@H](Cc1ccc(O)cc1)NC(=O)c1cc(C(=O)O)c2cc(-c3cccc([N+](=O)[O-])c3)ccc2n1`, the IC50 was at most 1000 nM.

`COC(=O)[C@H](Cc1ccc(O)cc1)NC(=O)c1cc(C(=O)O)c2cc(CCC(C)(C)C)ccc2n1` showed an IC50 of at most 1000 nM.

`COC(=O)[C@H](Cc1ccc(O)cc1)NC(=O)c1cc(C(=O)O)c2cc(CCc3ccc(F)cc3)ccc2n1` showed an IC50 of at most 1000 nM.

Work on `COC[C@H](Cc1ccc(O)cc1)NC(=O)c1cc(NS(=O)(=O)C(C)(C)C)c2cc(-c3cccc(COc4ccccn4)c3)ccc2n1` yielded an IC50 of at most 1000 nM.

Work on `COC[C@H](Cc1ccc(O)cc1)NC(=O)c1cc(C(=O)O)c2cc(OCc3ccc(C(F)(F)F)cc3)ccc2n1` yielded an IC50 of at most 1000 nM.

Compound `COC(=O)[C@H](Cc1ccc(O)cc1)NC(=O)c1cc(NS(C)(=O)=O)c2cc(-c3cccc(C(F)(F)F)c3)ccc2n1` has an IC50 of at most 1000 nM.

For `COC(=O)[C@H](Cc1ccc(O)cc1)NC(=O)c1cc(C(=O)O)c2cc(-c3cccc(C#N)c3)ccc2n1`, the IC50 was at most 1000 nM.

`Cc1cnc([C@H](Cc2ccc(O)cc2)NCc2cc(C(=O)O)c3cc(-c4cccc(C(F)(F)F)c4)ccc3n2)o1` showed an IC50 of at most 1000 nM.

`COC(=O)[C@H](Cc1ccc(O)cc1)NC(=O)c1cc(C(=O)O)c2cc(-c3ccc(Oc4ccccc4)cc3)ccc2n1` was tested, and the IC50 was at most 1000 nM.

Compound `COC(=O)[C@H](Cc1ccc(O)cc1)NC(=O)c1cc(C(=O)O)c2cc(CCc3ccccc3)ccc2n1` has an IC50 of at most 1000 nM.

`CN(C)C(=O)[C@H](Cc1ccc(O)cc1)NC(=O)c1cc(C(=O)O)c2cc(C=Cc3ccc(Cl)cc3)ccc2n1` showed an IC50 of at most 1000 nM.

`COC[C@H](Cc1ccc(O)cc1)NC(=O)c1cc(C(=O)O)c2cc(-c3cccc(Cn4ccccc4=O)c3)ccc2n1` gave an IC50 of at most 1000 nM.

Work on `CNC(=O)[C@H](Cc1ccc(O)cc1)NC(=O)c1cc(C(=O)O)c2cc(C=Cc3ccc(Cl)cc3)ccc2n1` yielded an IC50 of at most 1000 nM.

`COC(=O)[C@H](Cc1ccc(O)cc1)NC(=O)c1cc(C(=O)O)c2cc(C=Cc3ccc(F)cc3)ccc2n1` showed an IC50 of at most 1000 nM.

In the case of `O=C(NC(Cc1ccc(O)cc1)C1CCCCC1)c1cc(C(=O)O)c2cc(-c3cccc(C(F)(F)F)c3)ccc2n1` (stereo not given), the IC50 is reported as at most 1000 nM.

`COC(=O)[C@H](Cc1ccc(O)cc1)NC(=O)c1cc(C(=O)O)c2cc(-c3ccc(C)s3)ccc2n1` gave an IC50 of at most 1000 nM.

`CCCCCCc1ccc2nc(C(=O)N[C@@H](Cc3ccc(O)cc3)C(=O)OC)cc(C(=O)O)c2c1` was tested, and the IC50 was at most 1000 nM.

`COC[C@H](Cc1ccc(O)cc1)NC(=O)c1cc(-c2nnn[nH]2)c2cc(-c3cccc(C(F)(F)F)c3)ccc2n1` showed an IC50 of at most 1000 nM.

For `COC(=O)[C@H](Cc1ccc(O)cc1)NC(=O)c1cc(C(=O)O)c2cc(-c3ccc(F)c(C)c3)ccc2n1`, the IC50 was at most 1000 nM.

`COC(=O)[C@H](Cc1ccc(O)cc1)NC(=O)c1cc(C(=O)O)c2cc(-c3ccc(C)c([N+](=O)[O-])c3)ccc2n1` showed an IC50 of at most 1000 nM.

With `COC(=O)[C@H](Cc1ccc(O)cc1)NC(=O)c1cc(C(=O)O)c2cc(-c3ccc(OC)cc3)ccc2n1` the IC50 was at most 1000 nM.

`COC(=O)[C@H](Cc1ccc(O)cc1)NC(=O)c1cc(C(=O)O)c2cc(-c3cc(C)cc(C)c3)ccc2n1` was tested, and the IC50 was at most 1000 nM.

Compound `COC(=O)[C@H](Cc1ccc(O)cc1)NC(=O)c1cc(C(=O)O)c2cc(-c3cc4ccccc4o3)ccc2n1` has an IC50 of at most 1000 nM.

`COC(=O)[C@H](Cc1ccc(O)cc1)NC(=O)c1cc(C(=O)O)c2cc(-c3cc4ccccc4s3)ccc2n1` showed an IC50 of at most 1000 nM.

With `COC(=O)[C@H](Cc1ccc(O)cc1)NC(=O)c1cc(C(=O)O)c2cc(-c3cc(Cl)cc(Cl)c3)ccc2n1` the IC50 was at most 1000 nM.

Work on `COC(=O)[C@H](Cc1ccc(O)cc1)NC(=O)c1cc(C(=O)O)c2cc(-c3ccc(OC(F)(F)F)cc3)ccc2n1` yielded an IC50 of at most 1000 nM.

`COC[C@H](Cc1ccc(O)cc1)NC(=O)c1cc(C(=O)O)c2cc(-c3cccc(C(F)(F)F)c3)ccc2n1` gave an IC50 of at most 1000 nM.
